Laboratory results as given in paper PMC10113987, “A tool for nuclear imaging of the SARS-CoV-2 entry receptor: molecular model and preclinical development of ACE2-selective radiopeptides” (EJNMMI Research, 2023).
Positions of bridges follow the written chain, without caps; N, C: chain ends. Residues, ends and D or L forms follow the SMILES beside them. *: point of attachment. DOTA = O=C(O)CN1CCN(CC(=O)O)CCN(CC(=O)*)CCN(CC(=O)O)CC1; NODAGA = O=C(O)CN1CCN(CC(=O)O)CCN(C(CCC(=O)*)C(=O)O)CC1; Ahx = NCCCCCC(=O)O

Columns and labels:
HEK-ACE2 cells = assay: Cell uptake and internalization in HEK-ACE2 cells; assay type: cell-based, human
Description: HEK-293 cells transfected with ACE2 or ACE, referred to as HEK-ACE2 and HEK-ACE, respectively, were obtained from Innoprot (Innovative Technologies in Biological Systems S.L. Bizkaia, Spain). The cells were cultured in Dulbecco’s Modified Eagle Medium (DMEM) supplemented with nonessential amino acids, fetal calf serum and antibiotics. Hygromycin B was used to maintain the expression of ACE2 and ACE, respectively. The HEK cells were cultured under standard conditions at 37 °C and 5% CO2 and subcultured using PBS/EDTA and trypsin.
The uptake and internalization of [^67Ga]Ga-DOTA-DX600, [^67Ga]Ga-NODAGA-DX600, [^67Ga]Ga-HBED-CC-DX600 and [^67Ga]Ga-DOTA-BPP9a were determined using HEK-ACE2 and HEK-ACE cells. The cells were seeded in poly-D-lysine-coated 12-well plates allowing cell adhesion and growth overnight. After rinsing the cells with PBS, they were incubated with the respective radiopeptide (25 µL, 1.9 pmol, 38 kBq). In some cell samples, the radiopeptides were co-incubated with excess of cyclo-DX600 (2 µM) or lisinopril (4 µM) to block ACE2 or ACE, respectively. After incubation of the cells for 1 h or 3 h, they were rinsed with PBS or acidic stripping buffer (glycine buffer with NaCl 0.9%, pH 2.8) to determine the total uptake and internalization of the radiopeptides, respectively. Cell samples were lysed using NaOH (1 M, 1 mL) before counting the activity in a γ-counter. The results were expressed as a percentage of total added activity and normalized to an average content of ~ 0.3 mg protein per well.
Methods: The methods for cell uptake studies are reported in the main article. The cyclo-DX600 (ACE2 inhibitor) and lisinopril (ACE inhibitor) were applied at a final concentration of 2 µM and 4 µM, respectively.

[1] = system: mouse blood plasma proteins; assay: Blood plasma protein binding, mouse plasma (ultrafiltration); assay type: in vitro ADME; conditions: 30 min, 37 °C
Description: (§1) The radiopeptides (0.3 MBq; 15 pmol) were incubated in human or murine blood plasma (150 μL) for 30 min at 37 °C followed by cooling on ice, addition of ice-cold PBS (150 μL) and transfer of the samples to amicon filter devices (Amicon Ultra, 0.5 mL, Merck Millipore; cutoff 10 kDa). The filter ensured the retention of the radiopeptides bound to mouse plasma proteins or human plasma proteins during filtration (14,000 rcf, 30 min at 4 °C). Afterward, the filter inserts were inverted and centrifuged again (200 rcf, 3 min) to recover the protein-bound fraction of the radiopeptides. The activities of the free radiopeptides in the filtrate, as well as in the filter insert and the plasma protein-bound radiopeptides (Abound), were counted for activity separately in a γ-counter. The total activity (Atotal) was determined as the sum of the activities in the filtrate, filter insert, and protein-bound fractions. The percentage of radiopeptide bound to mouse serum albumin (MSA) and human serum albumin (HSA) was calculated as Abound/Atotal*100. The results were presented as average ± SD of three independent experiments (Additional file 1).
(§2) Methods: The detailed methods are reported in the main article. Control experiments were performed by incubation of the respective radiopeptides in phosphate-buffered saline (PBS) instead of blood plasma, followed by ultracentrifugation using Amicon filters.

[2] = as above; assay type: in vitro ADME; conditions: mouse, plasma, 30 min, 37 °C, read-out: Fraction bound to blood plasma proteins (converted)
Description: as §1, §2

[3] = Blood plasma protein binding, human plasma (ultrafiltration); assay type: in vitro ADME; conditions: human, plasma, 30 min, 37 °C, read-out: Fraction bound to blood plasma proteins
Description: as §1, §2

[4] = system: human blood plasma proteins; assay: as above; assay type: in vitro ADME; conditions: 30 min, 37 °C
Description: as §1, §2

ACE2 = molecular target: T1, ACE2 (Homo sapiens, UniProt Q9BYF1); assay: ACE2-binding affinity (saturation binding on HEK-ACE2 cells); conditions: on ice, 1 h
T1 construct: host or cells: HEK-293
T1 sequence (Q9BYF1 18-805): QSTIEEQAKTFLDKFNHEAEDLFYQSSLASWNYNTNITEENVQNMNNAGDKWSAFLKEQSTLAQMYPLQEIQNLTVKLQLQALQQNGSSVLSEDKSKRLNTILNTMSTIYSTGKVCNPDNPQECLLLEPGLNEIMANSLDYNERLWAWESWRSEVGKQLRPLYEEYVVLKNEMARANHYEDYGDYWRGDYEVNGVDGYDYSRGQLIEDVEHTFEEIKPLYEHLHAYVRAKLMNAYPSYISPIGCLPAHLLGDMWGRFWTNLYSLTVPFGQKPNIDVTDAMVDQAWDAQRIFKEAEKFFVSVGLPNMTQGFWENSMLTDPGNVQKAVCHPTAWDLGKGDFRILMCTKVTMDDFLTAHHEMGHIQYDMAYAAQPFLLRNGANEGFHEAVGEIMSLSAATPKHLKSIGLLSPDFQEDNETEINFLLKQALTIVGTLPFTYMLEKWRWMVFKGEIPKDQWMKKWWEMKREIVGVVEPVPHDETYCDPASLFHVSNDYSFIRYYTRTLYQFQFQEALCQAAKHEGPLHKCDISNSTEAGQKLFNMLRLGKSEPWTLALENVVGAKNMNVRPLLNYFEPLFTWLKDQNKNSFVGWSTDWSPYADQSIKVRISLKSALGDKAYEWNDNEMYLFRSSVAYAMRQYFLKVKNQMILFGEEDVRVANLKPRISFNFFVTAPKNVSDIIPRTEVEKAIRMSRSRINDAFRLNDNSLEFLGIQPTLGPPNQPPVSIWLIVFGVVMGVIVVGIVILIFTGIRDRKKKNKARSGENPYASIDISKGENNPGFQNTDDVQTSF
Description: In order to determine the KD values of the DX600-based radiopeptides and [^67Ga]Ga-DOTA-BPP9a, HEK-ACE2 and HEK-ACE cells were seeded in 48-well-plates allowing adhesion and growth overnight. The cell samples were incubated with increasing concentrations (1‒2000 nM) of the radiopeptides (5 MBq/nmol) on ice. Some of the cell samples were co-incubated with an excess of cyclo-DX600 or lisinopril (20 µM, 10 nmol) to block ACE2 or ACE, respectively, enabling the determination of non-specific binding (Additional file 1). After 1 h incubation, the cells were rinsed with PBS and lysed with NaOH (1 M, 600 µL) to count the activity in a γ-counter. The KD values were determined by plotting specific binding (total binding minus unspecific binding) against the molar concentration of the added radiopeptide. A nonlinear regression analysis was performed using GraphPad Prism software (version 8.3.1).

CC(=O)N[C@@H](CCCCNC(=O)CCC(C(=O)O)N1CCN(CC(=O)O)CCN(CC(=O)O)CC1)C(=O)NCC(=O)N[C@@H](CC(=O)O)C(=O)N[C@@H](Cc1ccc(O)cc1)C(=O)N[C@@H](CO)C(=O)N[C@@H](Cc1c[nH]cn1)C(=O)N[C@H]1CSSC[C@@H](C(=O)N[C@H](C(=O)N[C@@H](Cc2ccc(O)cc2)C(=O)N2CCC[C@H]2C(=O)N[C@@H](CC(=O)O)C(=O)N2CCC[C@H]2C(=O)N[C@@H](CCC(=O)O)C(=O)NCC(=O)NCC(=O)NCC(N)=O)[C@@H](C)O)NC(=O)[C@H](CCCCN)NC(=O)[C@H](Cc2c[nH]c3ccccc23)NC(=O)[C@H](Cc2c[nH]c3ccccc23)NC(=O)[C@@H]2CCCN2C(=O)[C@H](Cc2ccc(O)cc2)NC(=O)[C@H](Cc2ccc(O)cc2)NC(=O)[C@H](CCCNC(=N)N)NC(=O)[C@H](CC(C)C)NC(=O)[C@@H]2CCCN2C(=O)[C@H](CO)NC1=O (some centres unmarked) [[^67Ga]Ga-NODAGA-DX600, metal not drawn] (Ac-K(NODAGA)GDYSHCSPLRYYPWWKCTYPDPEGGG-NH2; disulfide 7-18)
Internalized fraction in HEK-ACE2 cells (HEK-ACE2 cells; 3 h incubation, acidic stripping buffer): 8.2 ± 0.3%
Uptake in HEK-ACE2 cells (HEK-ACE2 cells; 3 h incubation, percentage of total added activity): 40 ± 3%
Uptake in HEK-ACE2 cells in the presence of excess cyclo-DX600 (unspecifically bound) (HEK-ACE2 cells; co-incubation with cyclo-DX600 2 µM): 3.1 ± 1.1%

CC[C@H](C)[C@H](NC(=O)[C@H](CCC(N)=O)NC(=O)[C@@H]1CCCN1C(=O)[C@H](CCCNC(=N)N)NC(=O)[C@@H]1CCCN1C(=O)[C@H](Cc1c[nH]c2ccccc12)NC(=O)[C@H](CCC(=O)O)NC(=O)CCCCCNC(=O)CCCCCNC(=O)CN1CCN(CC(=O)O)CCN(CC(=O)O)CCN(CC(=O)O)CC1)C(=O)N1CCC[C@H]1C(=O)N1CCC[C@H]1C(=O)O [[^67Ga]Ga-DOTA-BPP9a, metal not drawn] ({DOTA-Ahx-Ahx}-EWPRPQIPP-OH)
Fraction bound to blood plasma proteins [1]: ~ 53%
fraction unbound [2]: 0.47
fraction unbound [3]: 0.5
Fraction bound to blood plasma proteins [4]: ~ 49%

CC(=O)N[C@@H](CCCCNC(=O)CN1CCN(CC(=O)O)CCN(CC(=O)O)CCN(CC(=O)O)CC1)C(=O)NCC(=O)N[C@@H](CC(=O)O)C(=O)N[C@@H](Cc1ccc(O)cc1)C(=O)N[C@@H](CO)C(=O)N[C@@H](Cc1c[nH]cn1)C(=O)N[C@H]1CSSC[C@@H](C(=O)N[C@H](C(=O)N[C@@H](Cc2ccc(O)cc2)C(=O)N2CCC[C@H]2C(=O)N[C@@H](CC(=O)O)C(=O)N2CCC[C@H]2C(=O)N[C@@H](CCC(=O)O)C(=O)NCC(=O)NCC(=O)NCC(N)=O)[C@@H](C)O)NC(=O)[C@H](CCCCN)NC(=O)[C@H](Cc2c[nH]c3ccccc23)NC(=O)[C@H](Cc2c[nH]c3ccccc23)NC(=O)[C@@H]2CCCN2C(=O)[C@H](Cc2ccc(O)cc2)NC(=O)[C@H](Cc2ccc(O)cc2)NC(=O)[C@H](CCCNC(=N)N)NC(=O)[C@H](CC(C)C)NC(=O)[C@@H]2CCCN2C(=O)[C@H](CO)NC1=O [[^67Ga]Ga-DOTA-DX600, metal not drawn] (Ac-K(DOTA)GDYSHCSPLRYYPWWKCTYPDPEGGG-NH2; disulfide 7-18)
Kd (ACE2): 0.098 ± 0.01 µM
